Experimental data taken from the supplement of paper PMC10307832.

Assays:
Assay in all cases: relative viability (nuclei count vs DMSO), 5 days (fraction); higher = more cells survive
[1] = compound: C[C@@]1(C(=O)Nc2ccc(F)nc2)CCCN1c1nc(Nc2cc(C3CC3)n[nH]2)c2cccn2n1 + Cc1nc(NC(=O)N2CCC[C@H]2C(N)=O)sc1-c1ccnc(C(C)(C)C(F)(F)F)c1 [Alpelisib] (partner 2 µM)
Outline: (§1)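 Lung cancer cell lines, seeded in 1536-well plates, were treated the following day by pin tool with a single drug or with five library-drug doses (not always all listed) in √10 steps on top of a fixed anchor-drug dose. Cells were fixed and nuclei stained in one step after 5 days, and nuclei were counted. Relative viability is the nuclei count for treated wells divided by that for vehicle wells, reported as medians of duplicate plates.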

Motesanib + Vorinostat = compound: CC1(C)CNc2cc(NC(=O)c3cccnc3NCc3ccncc3)ccc21 [Motesanib] + O=C(CCCCCCC(=O)Nc1ccccc1)NO [Vorinostat] (partner 1 µM)
Outline: as §1

[2] = compound: C[C@@]1(C(=O)Nc2ccc(F)nc2)CCCN1c1nc(Nc2cc(C3CC3)n[nH]2)c2cccn2n1 + CS(=O)(=O)CCNCc1ccc(-c2ccc3ncnc(Nc4ccc(OCc5cccc(F)c5)c(Cl)c4)c3c2)o1 [Lapatinib] (partner 2 µM)
Outline: as §1

Motesanib + Decitabine = compound: CC1(C)CNc2cc(NC(=O)c3cccnc3NCc3ccncc3)ccc21 [Motesanib] + Nc1ncn([C@H]2C[C@H](O)[C@@H](CO)O2)c(=O)n1 [Decitabine] (partner 2 µM)
Outline: as §1

| Cell Line | relative viability ([1]; first compound 0.04 µM) | relative viability ([1]; first compound 0.1265 µM) | relative viability ([1]; first compound 0.4 µM) | relative viability ([1]; first compound 1.265 µM) | relative viability (Motesanib + Vorinostat; first compound 0.01 µM) | relative viability (Motesanib + Vorinostat; first compound 0.03162 µM) | relative viability (Motesanib + Vorinostat; first compound 0.1 µM) | relative viability (Motesanib + Vorinostat; first compound 0.3162 µM) | relative viability (Motesanib + Vorinostat; first compound 1 µM) | relative viability ([2]; first compound 0.1265 µM) | relative viability ([2]; first compound 0.4 µM) | relative viability ([2]; first compound 1.265 µM) | relative viability (Motesanib + Decitabine; first compound 0.01 µM) | relative viability (Motesanib + Decitabine; first compound 0.03162 µM) | relative viability (Motesanib + Decitabine; first compound 0.1 µM) | relative viability (Motesanib + Decitabine; first compound 0.3162 µM) | relative viability (Motesanib + Decitabine; first compound 1 µM) | relative viability ([2]; first compound 0.04 µM) |
| --- | --- | --- | --- | --- | --- | --- | --- | --- | --- | --- | --- | --- | --- | --- | --- | --- | --- | --- |
| LK-2 | 1.01 | 1.13 | 0.818 | 1.23 | 0.271 | 0.311 | 0.386 | 0.433 | 0.486 | 1.16 | 0.584 | 0.713 | 0.251 | 0.398 | 0.28 | 0.285 | 0.374 | – |
| LOU-NH91 | 0.68 | 0.664 | 0.614 | 0.675 | 0.918 | 0.932 | 0.993 | 1 | 0.992 | 0.567 | 0.601 | 0.564 | 0.829 | 0.815 | 0.848 | 0.838 | 0.809 | 0.671 |
| LU99A | 0.392 | 0.306 | 0.291 | 0.307 | 0.473 | 0.593 | 0.505 | 0.645 | 0.484 | 0.545 | 0.48 | 0.342 | 0.752 | 0.916 | 0.876 | 0.847 | 1.01 | 0.808 |
| LXF-289 | 1.09 | 0.991 | 0.975 | 1.1 | 0.766 | 0.719 | 0.78 | 0.932 | 0.751 | 0.856 | 0.831 | 0.802 | 0.406 | 0.427 | 0.617 | 0.651 | 0.688 | 0.914 |
| NCI-H23 | 0.595 | 0.407 | 0.41 | 0.601 | 0.597 | 0.549 | 0.516 | 0.741 | 0.51 | 0.496 | 0.695 | 0.6 | 0.31 | 0.382 | 0.436 | 0.52 | 0.523 | 0.958 |
| NCI-H322M | 0.694 | 0.539 | 0.557 | 0.895 | 0.962 | 0.88 | 0.871 | 1.03 | 0.849 | 0.441 | 0.374 | 0.341 | 0.688 | 0.672 | 0.707 | 0.685 | 0.777 | 0.533 |
| NCI-H358 | 0.505 | 0.427 | 0.344 | 0.406 | 0.641 | 0.67 | 0.71 | 0.819 | 0.649 | 0.22 | 0.259 | 0.251 | 0.197 | 0.261 | 0.257 | 0.314 | 0.276 | 0.304 |
| NCI-H460 | 0.401 | 0.207 | 0.222 | 0.389 | 0.635 | 0.696 | 0.716 | 0.726 | 0.666 | 0.798 | 0.886 | 0.829 | 0.531 | 0.453 | 0.467 | 0.568 | 0.543 | 1.05 |
| NCI-H520 | 0.918 | 0.688 | 0.926 | 0.801 | 0.664 | 0.759 | 0.687 | 0.734 | 0.686 | 0.841 | 0.826 | 0.875 | 0.554 | 0.538 | 0.626 | 0.613 | 0.669 | 0.98 |
| NCI-H596 | 0.573 | 0.264 | 0.356 | 0.471 | 0.586 | 0.546 | 0.56 | 0.511 | 0.711 | 0.849 | 0.848 | 0.783 | 1.1 | 1.08 | 1.12 | 1.15 | 1.16 | 1.04 |
| NCI-H647 | 1.24 | 0.957 | 0.864 | 0.913 | 0.506 | 0.575 | 0.567 | 0.769 | 0.894 | 1.03 | 0.84 | 0.457 | 0.43 | 0.441 | 0.488 | 0.542 | 0.535 | 1.07 |
| NCI-H650 | 1.04 | 0.731 | 0.891 | 0.811 | 0.435 | 0.439 | 0.554 | 0.549 | 0.477 | 0.828 | 0.625 | 0.55 | 0.31 | 0.319 | 0.312 | 0.382 | 0.529 | 0.853 |
| NCI-H661 | 0.592 | 0.665 | 0.793 | 0.566 | 0.775 | 0.737 | 0.766 | 0.797 | 0.883 | 0.839 | 0.32 | 0.389 | 0.486 | 0.528 | 0.556 | 0.631 | 0.625 | 0.492 |
| NCI-H727 | 0.33 | 0.24 | 0.221 | 0.303 | 1.12 | 1.29 | 1.39 | 1.26 | 1.29 | 0.371 | 0.247 | 0.294 | 0.861 | 0.927 | 0.929 | 0.804 | 0.937 | 0.692 |
